How the values were obtained:
[1] = target: Bacterial leucyl aminopeptidase (Vibrio proteolyticus, UniProt Q01693); experiment: Inhibition of Aeromonas proteolytica leucyl aminopeptidase using L-leucine para-notroanilide as substrate assessed as release of para-nitroaniline by Dixon plot analysis
[2] = target: T1, Aminopeptidase N (Sus scrofa, UniProt P15145); experiment: Inhibition of porcine kidney APN using L-leucine para-notroanilide as substrate assessed as release of para-nitroaniline by Dixon plot analysis
T1 sequence (P15145 whole entry): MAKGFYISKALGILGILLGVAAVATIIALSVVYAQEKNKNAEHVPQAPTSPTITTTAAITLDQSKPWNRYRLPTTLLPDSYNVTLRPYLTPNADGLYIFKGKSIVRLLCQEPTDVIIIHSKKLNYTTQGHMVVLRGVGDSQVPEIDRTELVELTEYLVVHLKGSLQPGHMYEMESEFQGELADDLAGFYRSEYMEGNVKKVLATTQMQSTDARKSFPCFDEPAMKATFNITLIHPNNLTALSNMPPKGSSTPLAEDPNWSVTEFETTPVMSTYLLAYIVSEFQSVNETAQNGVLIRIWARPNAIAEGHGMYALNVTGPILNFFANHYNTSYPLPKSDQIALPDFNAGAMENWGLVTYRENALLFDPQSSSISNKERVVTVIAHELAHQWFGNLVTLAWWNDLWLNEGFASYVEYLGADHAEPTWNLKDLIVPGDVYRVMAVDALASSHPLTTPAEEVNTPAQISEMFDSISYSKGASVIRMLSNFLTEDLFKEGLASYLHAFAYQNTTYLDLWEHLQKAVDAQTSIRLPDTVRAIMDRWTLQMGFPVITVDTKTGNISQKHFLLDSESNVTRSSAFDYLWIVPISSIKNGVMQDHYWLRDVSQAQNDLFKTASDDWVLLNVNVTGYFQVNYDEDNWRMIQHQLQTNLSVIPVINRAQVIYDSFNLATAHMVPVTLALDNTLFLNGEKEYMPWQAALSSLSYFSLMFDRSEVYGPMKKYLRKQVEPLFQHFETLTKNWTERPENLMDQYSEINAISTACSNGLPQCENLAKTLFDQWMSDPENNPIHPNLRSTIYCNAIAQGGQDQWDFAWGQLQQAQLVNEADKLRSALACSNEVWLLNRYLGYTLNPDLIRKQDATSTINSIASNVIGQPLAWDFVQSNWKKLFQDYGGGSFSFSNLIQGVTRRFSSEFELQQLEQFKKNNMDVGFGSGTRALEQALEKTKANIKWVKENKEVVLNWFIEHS

Bacterial leucyl aminopeptidase, sequence (Q01693 whole entry): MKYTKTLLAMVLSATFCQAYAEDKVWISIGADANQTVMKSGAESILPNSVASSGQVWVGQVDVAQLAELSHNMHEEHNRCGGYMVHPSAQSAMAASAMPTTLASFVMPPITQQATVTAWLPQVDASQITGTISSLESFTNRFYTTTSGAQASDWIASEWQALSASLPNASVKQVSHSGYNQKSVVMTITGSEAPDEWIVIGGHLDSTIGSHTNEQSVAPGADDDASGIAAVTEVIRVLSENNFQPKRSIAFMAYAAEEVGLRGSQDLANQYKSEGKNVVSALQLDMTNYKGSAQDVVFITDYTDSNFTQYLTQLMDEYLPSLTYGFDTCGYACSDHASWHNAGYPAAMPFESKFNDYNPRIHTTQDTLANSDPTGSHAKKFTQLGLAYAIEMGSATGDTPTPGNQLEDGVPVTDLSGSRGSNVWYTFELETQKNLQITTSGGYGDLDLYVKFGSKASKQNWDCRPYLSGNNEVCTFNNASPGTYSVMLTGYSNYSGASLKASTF

Row | IC50 [1] | Ki [1] | IC50 [2] | Ki [2] | SMILES
1 | 900 µM | – | – | – | NC1CCc2ccccc2CC1=O (stereo unspecified)
2 | – | 78 µM | > 1000 µM | – | N[C@@H]1[C@H](O)Cc2ccccc2C[C@@H]1O
3 | > 1000 µM | – | > 1000 µM | – | N[C@@H]1C(=O)Cc2ccccc2C[C@@H]1O (racemic)
4 | – | 4 µM | > 100 µM | – | N[C@H]1Cc2ccccc2C[C@@H](O)C1=O (racemic)
5 | – | 24 µM | – | 42 µM | N[C@H]1Cc2ccccc2C[C@H](O)C1=O (racemic)
6 | – | 0.01 µM | > 1000 µM | – | N[C@H]1Cc2ccccc2CC(=O)[C@H]1O (racemic)

— ChEMBL document CHEMBL2440033, “Synthesis of amino-hydroxy-benzocycloheptenones as potent, selective, non-peptidic dinuclear zinc metalloaminopeptidase inhibitors” (Bioorg Med Chem, 2013)
